Measured values published in ChEMBL document CHEMBL1201862, “PubChem BioAssay data set” (2004).
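Cells were grown in 96-well plates and exposed to each compound for 48 hours at five concentrations; endpoints were interpolated linearly between bracketing concentrations, or set to the highest concentration if not reached. The concentration for 50% growth inhibition is given as GI50.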 The source made the active and inactive calls. No stated cut-off is given here; in the data, active = GI50 up to about 1.1 µM and inactive = higher.

Legend:
Experiment in all cases: growth of human tumour cells (NCI), 48 h
786-0 = tested on: 786-0
A498 = tested on: A498
A549 = tested on: A549
ACHN = tested on: ACHN
CAKI-1 = tested on: CAKI-1
COLO 205 = tested on: COLO 205
DLD-1 = tested on: DLD-1
DMS-114 = tested on: DMS-114
EKVX = tested on: EKVX
HCC 2998 = tested on: HCC 2998
HCT-116 = tested on: HCT-116
HCT-15 = tested on: HCT-15
HOP-18 = tested on: HOP-18
HOP-62 = tested on: HOP-62
HOP-92 = tested on: HOP-92
HT-29 = tested on: HT-29
IGROV-1 = tested on: IGROV-1
KM-20L2 = tested on: KM-20L2
KM12 = tested on: KM12
LOX IMVI = tested on: LOX IMVI
LXFL 529 = tested on: LXFL 529
M14 = tested on: M14
M19-MEL = tested on: M19-MEL
Malme-3M = tested on: Malme-3M
NCI-H226 = tested on: NCI-H226
NCI-H23 = tested on: NCI-H23
NCI-H460 = tested on: NCI-H460
OVCAR-3 = tested on: OVCAR-3
OVCAR-4 = tested on: OVCAR-4
OVCAR-5 = tested on: OVCAR-5
OVCAR-8 = tested on: OVCAR-8
RXF 393 = tested on: RXF 393
SF-268 = tested on: SF-268
SF-295 = tested on: SF-295
SF-539 = tested on: SF-539
SK-MEL-28 = tested on: SK-MEL-28
SK-MEL-5 = tested on: SK-MEL-5
SK-OV-3 = tested on: SK-OV-3
SN12C = tested on: SN12C
SNB-19 = tested on: SNB-19
SNB-75 = tested on: SNB-75
SNB-78 = tested on: SNB-78
SW-620 = tested on: SW-620
TK-10 = tested on: TK-10
U-251 = tested on: U-251
UACC-257 = tested on: UACC-257
UACC-62 = tested on: UACC-62
UO-31 = tested on: UO-31
XF498 = tested on: XF498
CCRF-CEM = tested on: CCRF-CEM
DMS-273 = tested on: DMS-273
HL-60 = tested on: HL-60
K562 = tested on: K562
MCF7 = tested on: MCF7
MOLT-4 = tested on: MOLT-4
NCI-H522 = tested on: NCI-H522
NCI/ADR-RES = tested on: NCI/ADR-RES
RPMI-8226 = tested on: RPMI-8226
SK-MEL-2 = tested on: SK-MEL-2

Cc1cc(O)c2c3c1C(=O)Oc1c(CO)c(O)c(C(=O)O)c(c1O3)C=NN=Cc1c3c(c(CO)c(O)c1C(=O)O)OC(=O)c1c(C)cc(O)c(c1O3)C=NN=C2
GI50 (786-0): > 100 µM (inactive) | GI50 (A498): > 100 µM (inactive) | GI50 (A549): > 100 µM (inactive) | GI50 (ACHN): > 100 µM (inactive) | GI50 (CAKI-1): > 100 µM (inactive) | GI50 (COLO 205): > 100 µM (inactive) | GI50 (DLD-1): > 100 µM (inactive) | GI50 (DMS-114): 51.5 µM (inactive) | GI50 (EKVX): > 100 µM (inactive) | GI50 (HCC 2998): > 100 µM (inactive) | GI50 (HCT-116): > 100 µM (inactive) | GI50 (HCT-15): > 100 µM | GI50 (HOP-18): > 100 µM (inactive) | GI50 (HOP-62): > 100 µM (inactive) | GI50 (HOP-92): > 100 µM (inactive) | GI50 (HT-29): > 100 µM (inactive) | GI50 (IGROV-1): > 100 µM (inactive) | GI50 (KM-20L2): > 100 µM (inactive) | GI50 (KM12): 48.6 µM (inactive) | GI50 (LOX IMVI): > 100 µM (inactive) | GI50 (LXFL 529): > 100 µM (inactive) | GI50 (M14): > 100 µM (inactive) | GI50 (M19-MEL): > 100 µM (inactive) | GI50 (Malme-3M): > 100 µM (inactive) | GI50 (NCI-H226): > 100 µM (inactive) | GI50 (NCI-H23): > 100 µM (inactive) | GI50 (NCI-H460): > 100 µM (inactive) | GI50 (OVCAR-3): 32.7 µM (inactive) | GI50 (OVCAR-4): > 100 µM (inactive) | GI50 (OVCAR-5): > 100 µM (inactive) | GI50 (OVCAR-8): > 100 µM (inactive) | GI50 (RXF 393): > 100 µM (inactive) | GI50 (SF-268): > 100 µM (inactive) | GI50 (SF-295): > 100 µM (inactive) | GI50 (SF-539): > 100 µM (inactive) | GI50 (SK-MEL-28): > 100 µM (inactive) | GI50 (SK-MEL-5): 40.2 µM (inactive) | GI50 (SK-OV-3): > 100 µM (inactive) | GI50 (SN12C): > 100 µM (inactive) | GI50 (SNB-19): > 100 µM (inactive) | GI50 (SNB-75): > 100 µM (inactive) | GI50 (SNB-78): > 100 µM (inactive) | GI50 (SW-620): > 100 µM (inactive) | GI50 (TK-10): > 100 µM (inactive) | GI50 (U-251): > 100 µM (inactive) | GI50 (UACC-257): > 100 µM (inactive) | GI50 (UACC-62): > 100 µM (inactive) | GI50 (UO-31): > 100 µM (inactive) | GI50 (XF498): > 100 µM (inactive)

O=S(=O)(O)c1cc(S(=O)(=O)O)c2cc(/N=N/c3ccc(/N=N/c4ccc(/C=C/c5ccc(/N=[N+](/[O-])c6ccc(/C=C/c7ccc(/N=N/c8ccc(/N=N/c9ccc%10cc(S(=O)(=O)O)cc(S(=O)(=O)O)c%10c9)cc8)cc7S(=O)(=O)O)c(S(=O)(=O)O)c6)cc5S(=O)(=O)O)c(S(=O)(=O)O)c4)cc3)ccc2c1
GI50 (A498): > 100 µM (inactive) | GI50 (A549): > 65.3 µM (inactive) | GI50 (CCRF-CEM): > 100 µM (inactive) | GI50 (COLO 205): 50.7 µM (inactive) | GI50 (DLD-1): > 81.3 µM (inactive) | GI50 (DMS-114): > 57.4 µM (inactive) | GI50 (DMS-273): > 55.6 µM (inactive) | GI50 (EKVX): 82.6 µM (inactive) | GI50 (HCC 2998): > 61.2 µM (inactive) | GI50 (HCT-116): > 28.6 µM (inactive) | GI50 (HCT-15): 52.6 µM | GI50 (HL-60): 54.1 µM (inactive) | GI50 (HOP-62): > 100 µM (inactive) | GI50 (HOP-92): > 58.5 µM (inactive) | GI50 (HT-29): > 55.1 µM (inactive) | GI50 (IGROV-1): > 100 µM (inactive) | GI50 (K562): > 100 µM (inactive) | GI50 (KM-20L2): 58.9 µM (inactive) | GI50 (KM12): 26.7 µM (inactive) | GI50 (LOX IMVI): > 59.7 µM (inactive) | GI50 (M19-MEL): > 25 µM (inactive) | GI50 (MCF7): > 100 µM (inactive) | GI50 (MOLT-4): > 79.3 µM (inactive) | GI50 (Malme-3M): > 62.8 µM (inactive) | GI50 (NCI-H226): > 50.5 µM (inactive) | GI50 (NCI-H23): > 77.8 µM (inactive) | GI50 (NCI-H460): > 40.3 µM (inactive) | GI50 (NCI-H522): > 55.8 µM (inactive) | GI50 (NCI/ADR-RES): > 100 µM (inactive) | GI50 (OVCAR-3): > 31.6 µM (inactive) | GI50 (OVCAR-4): > 48.1 µM (inactive) | GI50 (OVCAR-5): > 79.3 µM (inactive) | GI50 (OVCAR-8): > 78.7 µM (inactive) | GI50 (RPMI-8226): 46.5 µM (inactive) | GI50 (RXF 393): > 50.9 µM (inactive) | GI50 (SF-268): > 69 µM (inactive) | GI50 (SF-295): > 33 µM (inactive) | GI50 (SF-539): > 59 µM (inactive) | GI50 (SK-MEL-28): > 100 µM (inactive) | GI50 (SK-MEL-2): 83.9 µM (inactive) | GI50 (SK-MEL-5): > 66.7 µM (inactive) | GI50 (SK-OV-3): > 22.3 µM (inactive) | GI50 (SN12C): > 54.1 µM (inactive) | GI50 (SNB-19): 25.9 µM (inactive) | GI50 (SNB-75): 35.8 µM (inactive) | GI50 (SNB-78): 53.5 µM (inactive) | GI50 (SW-620): > 10 µM (inactive) | GI50 (U-251): > 55.8 µM (inactive) | GI50 (UACC-257): > 60.3 µM (inactive) | GI50 (UACC-62): 7.93 µM (inactive) | GI50 (UO-31): 70.8 µM (inactive) | GI50 (XF498): 45.2 µM (inactive)
